Test results published in US11078164B1, “PTEN binding compounds, formulations, and uses thereof” (University of South Florida, priority 2017, dated 2021).
“Also recorded” adds a separate entry of the source.

What was measured:
Format in all cases: cell-based
p-AKT (Ser473) = assay: Immunoblot of p-AKT (Ser473) in treated A549 cells; details: 6 hours; for expression of p-AKT (Ser473), immunoblot: 40 μM, n=3; for decrease in phosphorylated, active form of AKT (pAKT-Ser473): about 40 μM
Protocol: (§1) PTEN antagonizes PI3K/AKT/S6K pathway activation via its lipid phosphatase function (Stambolic et al., 1998, Cell, October 2; 95(1):29-39, Sun H., et al., 1999, Proc Natl Acad Sci USA. 1999 May 25; 96(11):6199-204 and Song, M. S. et al., 2012, Molecular Cell Biology 13, 283-296). A549 lung adenocarcinoma cells were treated with either γ-AAPeptide #43 or #9 for 6 hours to determine the activity of PI3K/AKT/S6K downstream pathway effectors. There was about a 30 percent and about 70 decrease in the phosphorylated, active form of AKT (pAKT-Ser473) upon treatment with 40 μM γ-AAPeptide #43 (FIG. 2A) or about 40 μM γ-AAPeptide #9 (FIG. 2B) respectively. […] However, direct allosteric effects of these compounds on the structure and catalytic function of the PTEN enzyme activity remains highly plausible.
(§2) Protein Isolation and Immuno-blotting. For treatment with γ-AAPeptides, A549 cells were grown to about 50-60% confluency in 6-well plates, treated with indicated amount of γ-AAPeptide and allowed to incubate for 6 hours at about 5% CO2 and 37° C. After about 6 hours, media was aspirated and cells were lysed in ice cold IP Lysis Buffer (25 mM Tris-HCl pH 7.4, about 150 mM NaCl, about 1% NP-40, about 1 mM EDTA, about 5% glycerol) supplemented with about 100× protease inhibitor cocktail (Sigma Aldrich, St. Louis, Mo.), phosphatase inhibitor cocktail (final concentration about 10 mM sodium azide, about 10 mM NaF, about 4 mM sodium orthovanadate, about 10 mM sodium-molybdate dehydrate, about 4 mM sodium-tartrate dibasic dehydrate, about 5 mM EDTA disodium dehydrate, about 2 mM imidazole), about 1 mM DTT and about 1 mM PMSF. Samples were sonicated at about 10% amplitude on a digital sonifier (Branson Ultrasonics, Dabury, Conn.), centrifuged at about 14,000 rpm for about 10 minutes and the supernatant was collected. Protein concentration was determined using Bradford Dye Reagent (BioRad, Hercules, Calif.). The remaining supernatant was boiled in about 100 μL of 2× Laemmli Buffer containing about 5% β-mercaptoethanol (Sigma Aldrich, St. Louis, Mo.) and subjected to SDS-PAGE gel analysis, followed by immunoblotting. About 20 μg of total proteins from A549 cell extract were separated on a about 12% SDS-PAGE gel and electro-blotted to nitrocellulose membranes (about 0.45 μm; GE Healthcare, Pittsburgh, Pa.). Blots were blocked with about 5% nonfat dry milk or bovine serum albumin in TBST buffer (about 10 mM Tris, pH about 8, about 150 mM NaCl, about 0.1% Tween 20) and incubated with indicated primary antibodies (Table 1). Peroxidase conjugated mouse or rabbit secondary antibodies were used at dilution of about 1:10,000 (Jackson ImmunoResearch, West Grove, Pa.). […]

p-P70 S6K (Thr389) = assay: Immunoblot of p-P70 S6K (Thr389) in treated A549 cells; details: 40 μM, 6 hours; for expression of p-P70 S6K (Thr389), immunoblot: n=3
Protocol: as §1, §2

[1] = tested on: PTEN C-terminus (C-tail) cluster (Ser380, Thr382, Thr383, Ser385); assay: Immunoblot of PTEN C-tail phosphorylation in treated A549 cells; details: about 40 μM
Protocol: as §1
Protein Isolation and Immuno-blotting. For treatment with γ-AAPeptides, A549 cells were grown to about 50-60% confluency in 6-well plates, treated with indicated amount of γ-AAPeptide and allowed to incubate for 6 hours at about 5% CO2 and 37° C. […] Protein concentration was determined using Bradford Dye Reagent (BioRad, Hercules, Calif.). […]

A549 cells [2] = assay: Cell proliferation assay (Cell Counting Kit-8); details: 24 hours treatment; 9000 cells/well; n=6
Protocol: Proliferation Assays. Cell proliferation studies were performed using the Cell Counting Kit-8 (Dojindo Molecular Technologies, Rockville, Md.). A549 cells were plated in a 96-well plate with a cell density of about 9000 cells/well and cultured in F12K medium as described above. Cells were treated with indicated amount of γ-AAPeptide diluted in F12K media for 24 hours. After 24 hours, final cell numbers were assessed as a function of absorbance at 450 nm of reduced WST-(2-(2-methoxy-4-nitrophenyl)-3-(4-nitrophenyl)-5-(2,4-disulfophenyl)-2H-tetrazolium, monosodium salt).

A549 cells [3] = assay: ECIS migration / wound closure assay; details: for wound closure efficiency (continuous impedance sensing): A549 cells, 12 hours prior to wounding, vs control cells; for cell migration (ECIS): A549 lung cancer cells
Protocol: Migration Assay. Migration assay was performed on the ECIS machine (Name, Address). Briefly, A549 cells were grown on electric cell substrate impedance sensing 8-well plate arrays (8W1E; Applied Biophysics, Troy, N.Y.) in F12K media as described above. Confluent cells were treated with media containing γ-AAPeptide at desired concentration for about 12 hours prior to wounding. Cells were wounded using an elevated field pulse of about […] at about 32,000 Hz applied for about 20 seconds, producing a uniform circular lesion of about […] in size, and wound closure was tracked until healing. The impedance (Z) was measured at about 32000 Hz, normalized to its value at the initiation of data acquisition, and plotted as a function of time. Assays were performed in triplicate and reported as mean±S.E. unless stated otherwise (p value of ≤0.05 was considered to be significant).

A549 cells [4] = assay: Flow cytometry cell cycle analysis; details: for cell cycle arrest: 24 hour treatment, vs vehicle treated cells
Protocol: Flow Cytometry Assay for Cell Cycle Analysis. Cell cycle analysis was performed on A549 cells treated with indicated amount of γ-AAPeptide at about 50-60% confluency for about 24 hours. After about 24 hours of indicated γ-AAPeptide treatment, cells were trypsinized and centrifuged at about 2,000 rpm for about 10 minutes. Media and trypsin were aspirated and cells were washed twice with PBS and spun at about 2,000 rpm for about 10 minutes at about 4° C. after each wash. Cells were then stained with trypan blue (Thermo Fisher Scientific, Waltham, Mass.) and counted using a hemocytometer. Cells were resuspended in Phosphate Buffered Saline (PBS) at a density of about 2×10^6 cells/mL. 1 mL of cells was fixed in about 3 mL ice cold absolute ethanol for about 1 hour at about 4° C. After fixing, cells were washed twice with PBS and spun at about 3,000 rpm for about 10 minutes at about 4° C. after each wash. About 1 mL of Propidium Iodide (P1) staining solution (about 3.8 mM sodium citrate, about 40 μg/mL PI and PBS to volume) was added to each cell pellet, along with about 50 μL of RNase A (Qiagen, Hilden, Germany) at a concentration of about 10 μg/mL. Cells were incubated at about 37° C. for about 20 minutes and sub-sequentially stored at 4° C. until analyzed by flow cytometry. Assays were performed in triplicate and reported as mean±S.E. (p value of ≤0.05 was considered to be significant).

Compound | expression of p-AKT (Ser473), immunoblot (p-AKT (Ser473)) | decrease in phosphorylated, active form of AKT (pAKT-Ser473) (p-AKT (Ser473)) | reduction of phosphorylated, active form of P70S6K (p-P70S6K-Thr389) levels (p-P70 S6K (Thr389)) | expression of p-P70 S6K (Thr389), immunoblot (p-P70 S6K (Thr389)) | phosphorylation status of the PTEN C-terminus (C-tail) cluster [1] | A549 cell proliferation (A549 cells [2]) | wound closure efficiency (continuous impedance sensing) (A549 cells [3]; 30 μM) | cell migration (ECIS) (A549 cells [3]) | G1 cell population (A549 cells [4]; 40 μM, 24 hours) | G2 phase cell population (A549 cells [4]; 40 μM, 24 hours) | S phase cell population (A549 cells [4]; 40 μM, 24 hours) | cell cycle arrest (A549 cells [4]) | wound closure efficiency (continuous impedance sensing) (A549 cells [3]; 20 μM) | G1 cell population (A549 cells [4]; 20 μM, 24 hours) | G2 phase cell population (A549 cells [4]; 20 μM, 24 hours) | S phase population (A549 cells [4]; 20 μM, 24 hours)
NCCCC[C@H](N)C(=O)N[C@@H](Cc1ccccc1)CN(CC(=O)NCc1ccc(-c2ccccc2)cc1)C(=O)CC12CC3CC(CC(C3)C1)C2 [#43] | significant decrease | ~30% | about 75% | significant decrease | did not appear to alter | reduced A549 cell proliferation in a dose dependent manner; also recorded: Dose-dependent inhibition | decrease in wound closure efficiency | inhibit cell migration | increase | decreased | decreased | arrest cells in G1 phase | – | – | – | –
NCCCC[C@H](N)C(=O)N[C@@H](Cc1ccccc1)CN(CC(=O)N(Cc1cccc2ccccc12)Cc1cccc2ccccc12)C(=O)C[C@]12CC3C[C@H](C[C@H](C3)C1)C2 [#9] | significant decrease | about 70% | about 55% | significant decrease | did not appear to alter | reduced A549 cell proliferation in a dose dependent manner; also recorded: Dose-dependent inhibition | – | inhibit cell migration | – | – | – | arrested the cell cycle in both G1 and G2 phases | decrease in wound closure efficiency | increase | increase | decreased
